# Source: patent US11613531B2, “Inhibitors of RHO associated coiled-coil containing protein kinase” (Kadmon Corporation, LLC, priority 2017, dated 2023)
# Test system: ppMlc (T18/S19) levels in A7R5 cells
# Assay: A7R5 in-cell ELISA (pMLC)
# Assay type: cell-based, Rat
# Details: Rattus norvegicus, A7R5, A7R5 cells, 1 μM compound; read-out: pMLC % inh A7R5 @ [conc]
# Method: Determination of Compounds ROCK Inhibitory Activity in A7R5Cells.
# Rat aortic smooth muscle cell line, A7R5, cells were seeded with density of 5,000 cells/well in a 96-well plates for 24 hours and subsequently treated for 90 min with testing compounds. Cells were then fixed and processed according to the In-Cell ELISA Colorimetric Detection Kit manual (Thermo Scientific).
# An A7R5 in-cell Elisa assay was performed. A7R5 cells were treated with 9 points 2 fold serial dilution of compounds and ppMlc (T18/S19) levels were determined to calculate cellular IC50 values of the compounds. Compounds of the invention gave in cell IC50s under 100 nM.
# In vitro activities for the compounds were measured with Z′-lyte kinase kit (ThermoFisher Scientific). The percent inhibition rate was calculated by normalizing the kinase activity value obtained with 1 μM compound treatment against DMSO control value and then applied to the formula, [1-(compound/DMSO)]×100%. IC50s were calculated using the nonlinear regression curve fit function of the GraphPad Prism software with kinase activities data measured with 9 points 2-fold serial dilution of compounds treatment. In cell pMLC IC50s were calculated with data obtained from A7R5 cell experiments. A7R5 cells were treated with 9 points 2-fold serial dilution of compounds and ppMlc (T18/S19) levels were determined to calculate cellular IC50 values of the compounds using the nonlinear regression curve fit function of the GraphPad Prism software. NIH3T3 cells stably expressing ACTA2-promoter-driven-luciferase were applied to measure ROCK compounds functional IC50s in cells. Cells were plated in 96 well plates to confluence and treated with 9 points serial dilution of compounds in combination with TGFβ1 for 24 hr. Luciferase activities were measured and compound's IC50s were calculated using the nonlinear regression curve fit function of the GraphPad Prism software.
row,Compound,inhibition at 1 µM
1,"c1cc(Nc2ccc3[nH]ncc3c2)nc(N2CC3(CCNCC3)C2)n1 [Example 76, N-(2-(2,7-diazaspiro[3.5]nonan-2-yl)pyrimidin-4-yl)-1H-indazol-5-amine]",0%
2,"Fc1cnc(N2CCC3(CCCNC3)C2)nc1Nc1ccc2[nH]ncc2c1 (centres unmarked) [Example 161, N-(5-fluoro-2-(2,7-diazaspiro[4.5]decan-2-yl)pyrimidin-4-yl)-1H-indazol-5-amine]",2.6%
3,"Fc1cnc(N2CCC3(CNC3)C2)nc1Nc1ccc2[nH]ncc2c1 [Example 159, N-(5-fluoro-2-(2,6-diazaspiro[3.4]octan-6-yl)pyrimidin-4-yl)-1H-indazol-5-amine]",-12.2%
4,"c1cc(Nc2ccc3[nH]ncc3c2)nc(N2CCC(C3CNC3)C2)n1 (centres unmarked) [Example 83, N-(2-(3-(azetidin-3-yl)pyrrolidin-1-yl)pyrimidin-4-yl)-1H-indazol-5-amine]",2.1%
5,"Cc1cc(Nc2ccc3[nH]ncc3c2)nc(N2CCC3(CC2)CNCCO3)n1 [Example 123, N-(6-methyl-2-(1-oxa-4,9-diazaspiro[5.5]undecan-9-yl)pyrimidin-4-yl)-1H-indazol-5-amine]",-0.8%
6,"Fc1cnc(N2CCC3(CC2)CNCCO3)nc1Nc1ccc2[nH]ncc2c1 [Example 160, N-(5-fluoro-2-(1-oxa-4,9-diazaspiro[5.5]undecan-9-yl)pyrimidin-4-yl)-1H-indazol-5-amine]",5.9%
7,"Fc1cnc(N2CC3(CNC3)C2)nc1Nc1ccc2[nH]ncc2c1 [Example 165, N-(5-fluoro-2-(2,6-diazaspiro[3.3]heptan-2-yl)pyrimidin-4-yl)-1H-indazol-5-amine]",-10.2%
8,"Fc1cnc(N2CCC3NCCC3C2)nc1Nc1ccc2[nH]ncc2c1 (centres unmarked) [Example 168, N-(5-fluoro-2-(octahydro-5H-pyrrolo[3,2-c]pyridin-5-yl)pyrimidin-4-yl)-1H-indazol-5-amine]",12.2%
9,"Cc1cc(Nc2ccc3[nH]ncc3c2)nc(N2CCC3(CNC3)C2)n1 [Example 122, N-(6-methyl-2-(2,6-diazaspiro[3.4]octan-6-yl)pyrimidin-4-yl)-1H-indazol-5-amine]",-6.8%
10,"Cc1cc(Nc2ccc3[nH]ncc3c2)nc(N2CC(C3CCCNC3)c3ccccc32)n1 (centres unmarked) [Example 139, N-(6-methyl-2-(3-(piperidin-3-yl)indolin-1-yl)pyrimidin-4-yl)-1H-indazol-5-amine]",2.2%
11,"Cc1cc(Nc2ccc3[nH]ncc3c2)nc(N2CC3(CCNCC3)C2)n1 [Example 127, N-(6-methyl-2-(2,7-diazaspiro[3.5]nonan-2-yl)pyrimidin-4-yl)-1H-indazol-5-amine]",-7.2%
12,"O=C1CN(c2nccc(Nc3ccc4[nH]ncc4c3)n2)CCN1 [Example 17, 4-(4-((1H-indazol-5-yl)amino)pyrimidin-2-yl)piperazin-2-one]",11.2%
13,"Fc1cnc(N2CCC(C3CNC3)C2)nc1Nc1ccc2[nH]ncc2c1 (centres unmarked) [Example 172, N-(2-(3-(azetidin-3-yl)pyrrolidin-1-yl)-5-fluoropyrimidin-4-yl)-1H-indazol-5-amine]",-9.9%
14,"c1cc(Nc2ccc3[nH]ncc3c2)nc(N2CCC3(CCCNC3)C2)n1 (centres unmarked) [Example 73, N-(2-(2,7-diazaspiro[4.5]decan-2-yl)pyrimidin-4-yl)-1H-indazol-5-amine]",-4.8%
15,"c1cc(Nc2ccc3[nH]ncc3c2)nc(N2CCCC3(CCNC3)C2)n1 (centres unmarked) [Example 74, N-(2-(2,7-diazaspiro[4.5]decan-7-yl)pyrimidin-4-yl)-1H-indazol-5-amine]",2.7%
16,"c1cc(Nc2ccc3[nH]ncc3c2)nc(N2CCC3(CNC3)C2)n1 [Example 71, N-(2-(2,6-diazaspiro[3.4]octan-6-yl)pyrimidin-4-yl)-1H-indazol-5-amine]",-12.8%

# Same assay, conditions: Rattus norvegicus, A7R5, A7R5 cells, 10 μM compound; read-out: pMLC % inh A7R5 @ [conc]
row,Compound,inhibition at 10 µM
1,"c1ccc2c(Nc3ccc(-c4cn[nH]c4)cc3)nc(N3CCCNCC3)nc2c1 [Example 268, N-(4-(1H-pyrazol-4-yl)phenyl)-2-(1,4-diazepan-1-yl)quinazolin-4-amine]",63.7%
2,"COc1cnc(N2CC(C)NC(C)C2)nc1Nc1ccc2[nH]ncc2c1 (centres unmarked) [Example 52, N-(2-(3,5-dimethylpiperazin-1-yl)-5-methoxypyrimidin-4-yl)-1H-indazol-5-amine]",29.5%
3,"Cc1cnc(N2CCCNC(c3ccccc3)C2)nc1Nc1ccc2[nH]ncc2c1 (centres unmarked) [Example 103, N-(5-methyl-2-(3-phenyl-1,4-diazepan-1-yl)pyrimidin-4-yl)-1H-indazol-5-amine]",38.3%
4,"Nc1nnc(-c2ccc(Nc3ccnc(N4CCNCC4)n3)cc2)o1 [Example 362, 5-(4-((2-(piperazin-1-yl)pyrimidin-4-yl)amino)phenyl)-1,3,4-oxadiazol-2-amine]",5.14%
5,"CC1CN(c2nccc(Nc3ccc4[nH]ncc4c3)n2)CC(C)N1 (centres unmarked) [Example 226, N-(2-(3,5-dimethylpiperazin-1-yl)pyrimidin-4-yl)-1H-indazol-5-amine]",67.7%
6,"Cc1cc(Nc2ccc3[nH]ncc3c2)nc(N2CCCNC(c3ccccc3)C2)n1 (centres unmarked) [Example 112, N-(6-methyl-2-(3-phenyl-1,4-diazepan-1-yl)pyrimidin-4-yl)-1H-indazol-5-amine]",56.9%
7,"CC(C)C1CN(c2ncc(Cl)c(Nc3ccc4[nH]ncc4c3)n2)CCCN1 (centres unmarked) [Example 181, N-(5-chloro-2-(3-isopropyl-1,4-diazepan-1-yl)pyrimidin-4-yl)-1H-indazol-5-amine]",36.5%
8,"COc1cnc(N2CCNC(c3ccccc3)CC2)nc1Nc1ccc2[nH]ncc2c1 (centres unmarked) [Example 50, N-(5-methoxy-2-(5-phenyl-1,4-diazepan-1-yl)pyrimidin-4-yl)-1H-indazol-5-amine]",35.5%
9,"c1cc(Nc2ccc(-c3nnn[nH]3)cc2)nc(N2CCNCC2)n1 [Example 42, N-(4-(1H-tetrazol-5-yl)phenyl)-2-(piperazin-1-yl)pyrimidin-4-amine]",9.1%
10,"c1cc(-c2cn[nH]c2)ccc1Nc1nc(N2CCCNCC2)nc2c1COC2 [Example 262, N-(4-(1H-pyrazol-4-yl)phenyl)-2-(1,4-diazepan-1-yl)-5,7-dihydrofuro[3,4-d]pyrimidin-4-amine]",87%
11,"Cc1nc(N2CCCNC(c3ccccc3)C2)nc(Nc2ccc3[nH]ncc3c2)c1C (centres unmarked) [Example 20, N-(5,6-dimethyl-2-(3-phenyl-1,4-diazepan-1-yl)pyrimidin-4-yl)-1H-indazol-5-amine]",37.6%
12,"c1ccc(C2CN(c3nccc(Nc4ccc5[nH]ncc5c4)n3)CCN2)cc1 (centres unmarked) [Example 224, N-(2-(3-phenylpiperazin-1-yl)pyrimidin-4-yl)-1H-indazol-5-amine]",48%
13,"CC1CN(c2nccc(Nc3ccc(-c4cn[nH]c4)cc3)n2)CC(C)N1 (centres unmarked) [Example 256, N-(4-(1H-pyrazol-4-yl)phenyl)-2-(3,5-dimethylpiperazin-1-yl)pyrimidin-4-amine]",84.5%
14,"Fc1cnc(N2CCCNC(c3ccccc3)C2)nc1Nc1ccc2[nH]ncc2c1 (centres unmarked) [Example 141, N-(5-fluoro-2-(3-phenyl-1,4-diazepan-1-yl)pyrimidin-4-yl)-1H-indazol-5-amine]",54.9%
15,"c1cncc(-c2ccc(Nc3ccnc(N4CCNCC4)n3)cc2)c1 [Example 40, 2-(piperazin-1-yl)-N-(4-(pyridin-3-yl)phenyl)pyrimidin-4-amine]",13.4%
16,"O=c1ccc(-c2ccc(Nc3ccnc(N4CCNCC4)n3)cc2)c[nH]1 [Example 349, 5-(4-((2-(piperazin-1-yl)pyrimidin-4-yl)amino)phenyl)pyridin-2(1H)-one]",4.21%
17,"c1ccc(C2CN(c3nccc(Nc4ccc(-c5cn[nH]c5)cc4)n3)CCN2)cc1 (centres unmarked) [Example 260, N-(4-(1H-pyrazol-4-yl)phenyl)-2-(3-phenylpiperazin-1-yl)pyrimidin-4-amine]",18%
18,"Fc1cnc(N2CCNC(c3ccccc3)CC2)nc1Nc1ccc2[nH]ncc2c1 (centres unmarked) [Example 142, N-(5-fluoro-2-(5-phenyl-1,4-diazepan-1-yl)pyrimidin-4-yl)-1H-indazol-5-amine]",37.5%
19,"OCC1CNCCN1c1nccc(Nc2ccc3[nH]ncc3c2)n1 (centres unmarked) [Example 230, (1-(4-((1H-indazol-5-yl)amino)pyrimidin-2-yl)piperazin-2-yl)methanol]",16.1%
20,"c1cc(Nc2ccc(-c3cn[nH]c3)cc2)nc(N2CC3CCC(C2)N3)n1 [Example 258, N-(4-(1H-pyrazol-4-yl)phenyl)-2-(3,8-diazabicyclo[3.2.1]octan-3-yl)pyrimidin-4-amine]",26%
21,"COc1cnc(N2CCCNC(c3ccccc3)C2)nc1Nc1ccc2[nH]ncc2c1 (centres unmarked) [Example 48, N-(5-methoxy-2-(3-phenyl-1,4-diazepan-1-yl)pyrimidin-4-yl)-1H-indazol-5-amine]",51.1%

# Same assay, conditions: Rattus norvegicus, A7R5, A7R5 cells, ppMlc (T18/S19)
row,IC50,Compound
1,3720 nM,"c1ccc2c(Nc3ccc(-c4cn[nH]c4)cc3)nc(N3CCCNCC3)nc2c1 [Example 268, N-(4-(1H-pyrazol-4-yl)phenyl)-2-(1,4-diazepan-1-yl)quinazolin-4-amine]"
2,1290 nM,"Cc1cc(Nc2ccc3[nH]ncc3c2)nc(N2CCCNC(c3ccccc3)C2)n1 (centres unmarked) [Example 112, N-(6-methyl-2-(3-phenyl-1,4-diazepan-1-yl)pyrimidin-4-yl)-1H-indazol-5-amine]"
3,3650 nM,"c1cc(-c2cn[nH]c2)ccc1Nc1nc(N2CCCNCC2)nc2c1COC2 [Example 262, N-(4-(1H-pyrazol-4-yl)phenyl)-2-(1,4-diazepan-1-yl)-5,7-dihydrofuro[3,4-d]pyrimidin-4-amine]"
4,3350 nM,"c1ccc(C2CN(c3nccc(Nc4ccc5[nH]ncc5c4)n3)CCN2)cc1 (centres unmarked) [Example 224, N-(2-(3-phenylpiperazin-1-yl)pyrimidin-4-yl)-1H-indazol-5-amine]"
5,1560 nM,"CC1CN(c2nccc(Nc3ccc(-c4cn[nH]c4)cc3)n2)CC(C)N1 (centres unmarked) [Example 256, N-(4-(1H-pyrazol-4-yl)phenyl)-2-(3,5-dimethylpiperazin-1-yl)pyrimidin-4-amine]"
6,2890 nM,"Fc1cnc(N2CCCNC(c3ccccc3)C2)nc1Nc1ccc2[nH]ncc2c1 (centres unmarked) [Example 141, N-(5-fluoro-2-(3-phenyl-1,4-diazepan-1-yl)pyrimidin-4-yl)-1H-indazol-5-amine]"
7,2580 nM,"COc1cnc(N2CCCNC(c3ccccc3)C2)nc1Nc1ccc2[nH]ncc2c1 (centres unmarked) [Example 48, N-(5-methoxy-2-(3-phenyl-1,4-diazepan-1-yl)pyrimidin-4-yl)-1H-indazol-5-amine]"
